From US20220144812A1, “QUINOLINE DERIVATIVES AND THEIR USE FOR THE TREATMENT OF CANCER” (Epizyme, Inc., priority 2019, published 2022)
Where two headings read alike, the source gives them in different places.

Columns and labels:
[1] = system: H3K18Ac in HB-CLS-2 cells; assay: H3K18AC in-cell western (ICW) assay; type: cell-based; conditions: H3K18Ac in-cell western, read-out: CREBBP ICW IC50
Description: The following example describes methods and materials relating to an H3K18AC in-cell western assay. IC50 values (micromolar (μM)) are summarized in Table 1, Table 2, and Table 3 under the column labeled: “CREBBP ICW IC50 (micromolar).”
MATERIALS: HB-CLS-2 cell line, DMEM: Ham's F12 medium (1:1 mixture), penicillin-streptomycin, heat inactivated fetal bovine serum, D-PBS, Odyssey blocking buffer, 800CW goat anti-rabbit IgG (H+L) antibody, Licor Odyssey CLx Infrared Scanner, H3K18Ac rabbit monoclonal antibody. DRAQS fluorescent probe solution (5 mM), and 100% methanol were commercially available. HB-CLS-2 adherent cells were maintained in complete growth medium (DMEM: Ham's F12 supplemented with 10% v/v heat inactivated fetal bovine serum) and cultured at 37° C. under 5% CO2.
METHOD: Cell Treatment, ICW for detection of H3K18Ac and DNA content. HB-CLS-2 cells were seeded in assay medium (DMEM: Ham's F12 supplemented with 10% v/v heat inactivated fetal bovine serum and 1% Penicillin/Streptomycin) at a concentration of 80,000 cells per mL in a Poly-D-Lysine coated 384-well culture plates at 50 μL per well. Plates were incubated at room temperature for 30 minutes and then incubated at 37° C., 5% CO2 for additional 16-24 hours. Compounds and DMSO normalization were then added directly to the plates using a D300 Digital Dispenser and returned to the incubator at 37° C., 5% CO2 for 2 hrs. After the incubation, the contents of the plates were discarded into the appropriate waste stream and blotted on laboratory tissue to remove residual liquid. 90 μL per well of 100% ice cold methanol was added to the plates and incubated at room temperature for 15 minutes. Then methanol was then discarded into the appropriate waste stream and the plates again blotted on laboratory tissue to remove residual liquid. Plates were transferred to a Biotek 405 plate washer and washed 3 times with 100 μL per well of wash buffer (1X PBS containing 0.1% Triton X-100 (v/v)). Next, 50 μL per well of Odyssey blocking buffer with 0.1% Tween 20 (v/v) was added to each plate and incubated for 1 hour at room temperature. Blocking buffer was removed and 20 μL of primary antibody were added (α-H3K18Ac diluted 1:800 in Odyssey buffer with 0.1% Tween 20 (v/v)) and plates were incubated overnight (16 hours) at 4° C. Plates were washed 5 times with 100 μL per well of wash buffer. Next 20 μL per well of secondary antibody was added (1:400 800CW goat anti-rabbit IgG (H+L) antibody, 1:2000 DRAQ5 in Odyssey buffer with 0.1% Tween 20 (v/v)) and incubated for 1 hour at room temperature. The plates were washed 3 times with 100 μL per well wash buffer then 3 times with 100 μL per well of water. Plates were allowed to dry at room temperature then imaged on the Licor Odyssey CLx machine which measured integrated intensity at 700 nm and 800 nm wavelengths. Both 700 and 800 channels were scanned.

[2] = target: T1, CREBBP (1084-1701) (Homo sapiens, UniProt Q92793); assay: Biochemical assay for CREBBP (1084-1701), SAMDI; conditions: SAMDI, read-out: CREBBP Biochemistry IC50
T1 construct: measured in the following biochemical assay using CREBBP (1084-1701); purchased
T1 sequence (Q92793 1084-1701): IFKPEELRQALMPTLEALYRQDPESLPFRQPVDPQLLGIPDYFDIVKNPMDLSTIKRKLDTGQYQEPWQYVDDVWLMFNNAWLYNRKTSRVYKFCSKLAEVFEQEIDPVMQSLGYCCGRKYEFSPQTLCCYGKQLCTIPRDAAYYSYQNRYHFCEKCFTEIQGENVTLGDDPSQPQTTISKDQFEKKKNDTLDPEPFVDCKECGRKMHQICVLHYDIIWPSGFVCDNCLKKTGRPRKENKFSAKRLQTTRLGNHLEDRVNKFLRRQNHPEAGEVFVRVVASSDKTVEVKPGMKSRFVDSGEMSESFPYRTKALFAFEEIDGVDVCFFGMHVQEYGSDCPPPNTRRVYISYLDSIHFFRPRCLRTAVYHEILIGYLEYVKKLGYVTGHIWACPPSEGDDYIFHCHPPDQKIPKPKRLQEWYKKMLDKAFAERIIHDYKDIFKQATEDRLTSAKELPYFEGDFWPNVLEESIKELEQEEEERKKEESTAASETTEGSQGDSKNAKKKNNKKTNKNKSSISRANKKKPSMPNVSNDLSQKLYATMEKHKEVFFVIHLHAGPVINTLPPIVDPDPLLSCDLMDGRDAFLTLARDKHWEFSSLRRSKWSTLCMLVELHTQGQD
Description: The following example describes materials and methods relating to a biochemical assay for CREBBP (1084-1701). IC50 values (micromolar (μM)) are summarized in Table 1, Table 2, and Table 3 under the column labeled: “CREBBP Biochemistry IC50 (micromolar).”
MATERIALS: Reagents 1M Tris pH 8.0, Tween 20 10%, DTT, bovine serum gelatin (BSG) 2%, Peptide #233 (biotin-H3 11-25, K14R, K23R), Acetyl-CoA, CREBBP (1084-1701), formic acid (100%), and sodium bicarbonate were commercially available.
METHODS: The effect of compounds was measured in the following biochemical assay using CREBBP (1084-1701). Enzyme mix 30 μL per well was added using a Multi-drop to wells of prepared Compound Stock plate. The enzyme was incubated in the Compound Stock plate for 30 minutes at room temperature. Substrate mix, 20 μL per well, was added to Compound Stock plate using a Multi-drop. The plate was covered and incubate 30 minutes at room temperature. The reaction was stopped with addition of 5 μL per well of 5% formic acid using a Multi-drop. The plate was Incubated for 30 minutes at room temperature. The reaction mixture was neutralized with addition of 5 μL per well of 10% sodium bicarbonate using a Multi-drop. The plate was Incubated for 35 minutes at room temperature. The reaction mixture was Transferred 2.5 μL per well to a SAMDI biochip. The plate was Incubated for 60 minutes at room temperature. The samples were washed, dried, and matrix applied to SAMDI biochip. The SAMDI biochip was then read on the mass spectrometer.

CCn1ncc(CN(C)C(=O)c2cc(-c3ccccc3Cl)nc3ccc(Cl)cc23)c1C [Compound 95]
IC50 [1]: 1800 nM | IC50 [2]: 250 nM

CCn1ncc(CN(C)C(=O)c2cc(-c3ccccc3Cl)nc3cc(Cl)c(Cl)cc23)c1C [Compound 97]
IC50 [1]: 1900 nM | IC50 [2]: 470 nM

CCn1ncc(CN(C)C(=O)c2cc(-c3ccccc3OC)nc3ccc(Cl)cc23)c1C [Compound 98]
IC50 [1]: 2000 nM | IC50 [2]: 400 nM

CCn1ncc(CN(C)C(=O)c2cc(-c3cccc(Cl)c3)nc3ccc(C)cc23)c1C [Compound 126]
IC50 [1]: 4300 nM | IC50 [2]: 980 nM

CCn1ncc(CN(C)C(=O)c2cc(-c3ccccc3)nc3ccc(Cl)cc23)c1C [Compound 140]
IC50 [1]: 6100 nM | IC50 [2]: 3900 nM

CCn1ncc(CN(C)C(=O)c2cc(-c3ccccc3)nc3ccc(C)cc23)c1C [Compound 150]
IC50 [1]: 8200 nM | IC50 [2]: 6600 nM

CCn1ncc(CN(C)C(=O)c2nc(-c3cnn(C4CCNC4)c3)nc3ccc(Cl)cc23)c1C (stereo not shown) [Compound 206]
IC50 ([1]; HB-CLS-2 cells): 20000 nM | IC50 [2]: 192000 nM

CCn1ncc(CN(C)C(=O)c2nc(-c3cnn(CCCO)c3)nc3ccc(Cl)cc23)c1C [Compound 212]
IC50 ([1]; HB-CLS-2 cells): 20000 nM | IC50 [2]: 96000 nM

CCn1ncc(CN(C)C(=O)c2nc(-c3cnn(CCNC)c3)nc3ccc(Cl)cc23)c1C [Compound 213]
IC50 ([1]; HB-CLS-2 cells): 20000 nM | IC50 [2]: 135000 nM

CCn1ncc(CN(C)C(=O)c2nc(Cc3ccccc3)nc3ccc(Cl)cc23)c1C [Compound 225]
IC50 ([1]; HB-CLS-2 cells): 20000 nM | IC50 [2]: 96000 nM

CCc1onc(CN(C)C(=O)c2nc(-c3ccccc3Cl)nc3ccc(Cl)cc23)c1C [Compound 231]
IC50 ([1]; HB-CLS-2 cells): 20000 nM | IC50 [2]: 76000 nM

CCn1ncc(CN(C)C(=O)c2nc(-c3ccc(OCCCN(C)C(=O)OC(C)(C)C)cc3)nc3ccc(Cl)cc23)c1C [Compound 242]
IC50 ([1]; HB-CLS-2 cells): 20000 nM | IC50 [2]: 57000 nM

CCn1ncc(CN(C)C(=O)c2cc(-c3cn(CCCNC(=O)OC(C)(C)C)cn3)nc3ccc(Cl)cc23)c1C [Compound 243]
IC50 ([1]; HB-CLS-2 cells): 20000 nM | IC50 [2]: 99000 nM

CCn1ncc(CN(C)C(=O)c2nc(-c3cnn(CCCNC)c3)nc3ccc(Cl)cc23)c1C [Compound 250]
IC50 ([1]; HB-CLS-2 cells): 20000 nM | IC50 [2]: 121000 nM

CCn1ncc(CN(C)C(=O)c2nc(-c3cccc(Cl)c3Cl)nc3ccc(Cl)cc23)c1C [Compound 259]
IC50 ([1]; HB-CLS-2 cells): 180 nM | IC50 [2]: 2.6 nM

CCn1ncc(CN(C)C(=O)c2nc(-c3cccc(Cl)n3)nc3ccc(Cl)cc23)c1C [Compound 260]
IC50 ([1]; HB-CLS-2 cells): 3600 nM | IC50 [2]: 1700 nM

CCn1ncc(CN(C)C(=O)c2nc(-c3ccccc3Cl)nc3ccc(COC)cc23)c1C [Compound 276]
IC50 ([1]; HB-CLS-2 cells): 1500 nM | IC50 [2]: 620 nM

Cc1c(CN(C)C(=O)c2nc(-c3ccccc3Cl)nc3ccc(Cl)cc23)cnn1C(C)C [Compound 279]
IC50 ([1]; HB-CLS-2 cells): 760 nM | IC50 [2]: 82 nM

CCn1ncc(CN(C)C(=O)c2nc(-c3ccccc3OC)nc3ccc(Cl)cc23)c1C [Compound 281]
IC50 ([1]; HB-CLS-2 cells): 1300 nM | IC50 [2]: 830 nM

CCn1ncc(CN(C)C(=O)c2nc(-c3ccc(C)cc3)nc3ccc(Cl)cc23)c1C [Compound 282]
IC50 ([1]; HB-CLS-2 cells): 11000 nM | IC50 [2]: 5500 nM

CCn1ncc(CN(C)C(=O)c2nc(-c3cccc(Br)c3)nc3ccc(Cl)cc23)c1C [Compound 283]
IC50 ([1]; HB-CLS-2 cells): 670 nM | IC50 [2]: 0.89 nM

Cc1c(CN(C)C(=O)c2nc(-c3ccccc3Cl)nc3ccc(Cl)cc23)cnn1C1CC1 [Compound 285]
IC50 ([1]; HB-CLS-2 cells): 2700 nM | IC50 [2]: 4200 nM

CCn1ncc(CN(C)C(=O)c2nc(-c3ccccc3C#N)nc3ccc(Cl)cc23)c1C [Compound 294]
IC50 ([1]; HB-CLS-2 cells): 570 nM | IC50 [2]: 220 nM

CCn1ncc(CN(C)C(=O)c2nc(-c3cc(Cl)ccc3Cl)nc3ccc(Cl)cc23)c1C [Compound 297]
IC50 ([1]; HB-CLS-2 cells): 3200 nM | IC50 [2]: 1800 nM

Cc1c(CN(C)C(=O)c2nc(-c3cccc(Cl)c3)nc3ccc(Cl)cc23)cnn1C(C)C [Compound 299]
IC50 ([1]; HB-CLS-2 cells): 610 nM | IC50 [2]: 28 nM

CCn1ncc(CN(C)C(=O)c2nc(-c3cccc(C#N)c3)nc3ccc(Cl)cc23)c1C [Compound 301]
IC50 ([1]; HB-CLS-2 cells): 3900 nM | IC50 [2]: 2000 nM

CCN(Cc1cnn(CC)c1C)C(=O)c1cc(-c2ccccc2Cl)nc2ccc(Cl)cc12 [Compound 302]
IC50 ([1]; HB-CLS-2 cells): 8900 nM | IC50 [2]: 2500 nM

CCc1ccc2nc(-c3ccccc3Cl)nc(C(=O)N(C)Cc3cnn(CC)c3C)c2c1 [Compound 312]
IC50 ([1]; HB-CLS-2 cells): 580 nM | IC50 [2]: 72 nM

CCn1ncc(CN(C)C(=O)c2nc(-c3cscn3)nc3ccc(Cl)cc23)c1C [Compound 313]
IC50 ([1]; HB-CLS-2 cells): 1900 nM | IC50 [2]: 1900 nM

CCn1ncc(CN(C)C(=O)c2nc(-c3cccc(F)c3)nc3ccc(Cl)cc23)c1C [Compound 316]
IC50 ([1]; HB-CLS-2 cells): 1700 nM | IC50 [2]: 350 nM

CCn1ncc(CN(C)C(=O)c2nc(-c3cccc(C)c3)nc3ccc(Cl)cc23)c1C [Compound 317]
IC50 ([1]; HB-CLS-2 cells): 1500 nM | IC50 [2]: 230 nM

CCn1ncc(CN(C)C(=O)c2cc(-c3cccc(Cl)c3)nc3ccc(NC)cc23)c1C [Compound 330]
IC50 ([1]; HB-CLS-2 cells): 17000 nM | IC50 [2]: 9000 nM

CCn1ncc(CN(C)C(=O)c2nc(-c3ccccc3F)nc3ccc(Cl)cc23)c1C [Compound 335]
IC50 ([1]; HB-CLS-2 cells): 1500 nM | IC50 [2]: 530 nM

CCc1ncc(CN(C)C(=O)c2cc(-c3ccccc3Cl)nc3ccc(Cl)cc23)n1C [Compound 336]
IC50 ([1]; HB-CLS-2 cells): 1200 nM | IC50 [2]: 690 nM

Cc1c(CN(C)C(=O)c2nc(-c3ccccc3Cl)nc3ccc(Cl)cc23)cnn1CC(F)(F)F [Compound 337]
IC50 ([1]; HB-CLS-2 cells): 2300 nM | IC50 [2]: 630 nM

CCn1ncc(CN(CCO)C(=O)c2nc(-c3cccc(Cl)c3)nc3ccc(Cl)cc23)c1C [Compound 346]
IC50 ([1]; HB-CLS-2 cells): 1300 nM | IC50 [2]: 420 nM

CCN(Cc1cnn(CC)c1C)C(=O)c1nc(-c2cccc(Cl)c2)nc2ccc(Cl)cc12 [Compound 347]
IC50 ([1]; HB-CLS-2 cells): 5600 nM | IC50 [2]: 530 nM

CCn1ncc(CN(C)C(=O)c2cc(-c3ccccc3Cl)nc3c(C)cc(Cl)cc23)c1C [Compound 350]
IC50 ([1]; HB-CLS-2 cells): 6400 nM | IC50 [2]: 630 nM
